Results as given in patent US20220112175A1, “PYRIDAZINES HERBICIDAL COMPOUNDS” (SYNGENTA CROP PROTECTION AG, priority 2019, published 2022).
Where two headings read alike, the source gives them in different places.

Assays:
Experiment in all cases: Post-emergence efficacy, glasshouse pot test
Format in all cases: in vivo
[1] = system: Euphorbia heterophylla (EPHHL); settings: 312 h, read-out: Post-emergence efficacy EPHHL (100=total damage to plant; 0=no damage to plant)
Method: (§1) Seeds of a variety of test species were sown in standard soil in pots. After cultivation for 14 days (post-emergence) under controlled conditions in a glasshouse (at 24/16° C., day/night; 14 hours light; 65% humidity), the plants were sprayed with an aqueous spray solution derived from the dissolution of the technical active ingredient formula (I) in a small amount of acetone and a special solvent and emulsifier mixture referred to as IF50 (11.12% Emulsogen EL360 TM+44.44% N-methylpyrrolidone+44.44% Dowanol DPM glycol ether), to create a 50 g/l solution which was then diluted to required concentration using 0.25% or 1% Empicol ESC70 (Sodium lauryl ether sulphate)+1% ammonium sulphate as diluent.
(§2) The test plants were then grown in a glasshouse under controlled conditions (at 24/16° C., day/night; 14 hours light; 65% humidity) and watered twice daily. After 13 days the test was evaluated (100=total damage to plant; 0=no damage to plant).
(§3) Ipomoea hederacea (IPOHE), Euphorbia heterophylla (EPHHL), Chenopodium album (CHEAL), Amaranthus palmeri (AMAPA), Lolium perenne (LOLPE), Digitaria sanguinalis (DIGSA), Eleusine indica (ELEIN), Echinochloa crus-galli (ECHCG), Setaria faberi (SETFA)

[2] = system: Chenopodium album (CHEAL); settings: 312 h, read-out: Post-emergence efficacy CHEAL (100=total damage to plant; 0=no damage to plant)
Method: as §1, §2, §3

[3] = system: Digitaria sanguinalis (DIGSA); settings: 312 h, read-out: Post-emergence efficacy DIGSA (100=total damage to plant; 0=no damage to plant)
Method: as §1, §2, §3

Eleusine indica (ELEIN) = settings: 312 h, read-out: Post-emergence efficacy ELEIN (100=total damage to plant; 0=no damage to plant)
Method: as §1, §2, §3

Lolium perenne (LOLPE) = settings: 312 h, read-out: Post-emergence efficacy LOLPE (100=total damage to plant; 0=no damage to plant)
Method: as §1, §2, §3

[4] = system: Ipomoea hederacea (IPOHE); settings: 312 h, read-out: Post-emergence efficacy IPOHE (100=total damage to plant; 0=no damage to plant)
Method: as §1, §2, §3

Setaria faberi (SETFA) = settings: 312 h, read-out: Post-emergence efficacy SETFA (100=total damage to plant; 0=no damage to plant)
Method: as §1, §2, §3

[5] = system: Echinochloa crus-galli (ECHCG); settings: 312 h, read-out: Post-emergence efficacy ECHCG (100=total damage to plant; 0=no damage to plant)
Method: as §1, §2, §3

[6] = system: Amaranthus palmeri (AMAPA); settings: 312 h, read-out: Post-emergence efficacy AMAPA (100=total damage to plant; 0=no damage to plant)
Method: as §1, §2, §3

[7] = Application rate 500 g/Ha, post-emergence spray, evaluated after 13 days

Structure (SMILES) | pest or weed control at 500 g/ha [1, 7] | pest or weed control at 500 g/ha [2, 7] | pest or weed control at 500 g/ha [3, 7] | pest or weed control at 500 g/ha (Eleusine indica (ELEIN); [7]) | pest or weed control at 500 g/ha (Lolium perenne (LOLPE); [7]) | pest or weed control at 500 g/ha [4, 7] | pest or weed control at 500 g/ha (Setaria faberi (SETFA); [7]) | pest or weed control at 500 g/ha [5, 7] | pest or weed control at 500 g/ha [6, 7] | pest or weed control at 500 g/ha ([1]; post-emergence) | pest or weed control at 500 g/ha ([2]; post-emergence) | pest or weed control at 500 g/ha ([3]; post-emergence) | pest or weed control at 500 g/ha (Eleusine indica (ELEIN); post-emergence) | pest or weed control at 500 g/ha (Lolium perenne (LOLPE); post-emergence) | pest or weed control at 500 g/ha ([4]; post-emergence) | pest or weed control at 500 g/ha (Setaria faberi (SETFA); post-emergence) | pest or weed control at 500 g/ha ([5]; post-emergence) | pest or weed control at 500 g/ha ([6]; post-emergence)
CC(C)(NS(=O)(=O)CC[n+]1ccc(-c2nccs2)cn1)C(=O)O [Compound A18] | 10% | 50% | 0% | 0% | 0% | 0% | 20% | 10% | 30% |  |  |  |  |  |  |  |  | 
CC(C)(NC(=O)CC[n+]1ccc(-c2nccs2)cn1)C(=O)O [Compound A15] | 50% | 100% | 100% | 90% | 30% | 40% | 100% | 100% | 100% |  |  |  |  |  |  |  |  | 
Cn1cnc(-c2cc[n+](CSCCC(=O)O)nc2)n1 [Compound A7] | 70% | 90% | 100% | 90% | 70% | 20% | 100% | 100% | 100% |  |  |  |  |  |  |  |  | 
Cn1cnc(-c2cc[n+](CC(=O)NCC(=O)O)nc2)n1 [Compound A2, 2-[[2-[4-(1-methyl-1,2,4-triazol-3-yl)pyridazin-1-ium-1-yl]acetyl]amino]acetic acid chloride] |  |  |  |  |  |  |  |  |  | 50% | 70% | 100% | 80% | 40% | 40% | 100% | 100% | 100%
O=C(O)CNC(=O)C[n+]1ccc(-c2nccs2)cn1 [Compound A12] | 100% | 90% | 40% | 70% | 50% | 70% | 50% | 90% | 100% |  |  |  |  |  |  |  |  | 
CN(CC(=O)O)C(=O)C[n+]1ccc(-c2ncn(C)n2)cn1 [Compound A3] | 50% | 100% | 100% | 90% | 30% | 40% | 100% | 100% | 100% |  |  |  |  |  |  |  |  | 
CC(C)(NC(=O)C[n+]1ccc(-c2ncsn2)cn1)C(=O)O [Compound A21] | 80% | 90% | 30% | 40% | 40% | 70% | 100% | 30% | 100% |  |  |  |  |  |  |  |  | 
O=C(O)CNC(=O)CC[n+]1ccc(-c2nccs2)cn1 [Compound A14] | 100% | 90% | 100% | 100% | 50% | 70% | 90% | 100% | 100% |  |  |  |  |  |  |  |  | 
O=C(O)CNC(=O)C[n+]1ccc(-c2ncsn2)cn1 [Compound A23] | 90% | 100% | 40% | 70% | 50% | 90% | 80% | 50% | 100% |  |  |  |  |  |  |  |  | 
CN(CCS(=O)(=O)[O-])C(=O)C[n+]1ccc(-c2ncn(C)n2)cn1 [Compound A6] | 70% | 80% | 90% | 80% | 20% | 30% | 80% | 90% | 90% |  |  |  |  |  |  |  |  | 
O=C(C[n+]1ccc(-c2ncsn2)cn1)NC1(C(=O)O)CC1 [Compound A24] | 90% | 90% | 100% | 70% | 50% | 90% | 80% | 80% | 100% |  |  |  |  |  |  |  |  | 
O=C(O)CNC(=O)CC[n+]1ccc(-c2ncco2)cn1 [Compound A13] | 90% | 100% | 100% | 90% | 60% | 60% | 100% | 100% | 100% |  |  |  |  |  |  |  |  | 
Cn1cnc(-c2cc[n+](CSCC(=O)O)nc2)n1 [Compound A8, 2-[[4-(1-methyl-1,2,4-triazol-3-yl)pyridazin-1-ium-1-yl]methylsulfanyl]acetic acid chloride] | 70% | 90% | 100% | 100% | 70% | 30% | 100% | 100% | 100% |  |  |  |  |  |  |  |  | 
O=C(O)CNS(=O)(=O)CC[n+]1ccc(-c2nccs2)cn1 [Compound A17, 2-[2-(4-thiazol-2-ylpyridazin-1-ium-1-yl)ethylsulfonylamino]acetic acid 2,2,2-trifluoroacetate] | 20% | 30% | 80% | 10% | 0% | 10% | 20% | 20% | 0% |  |  |  |  |  |  |  |  | 
CC(NC(=O)CC[n+]1ccc(-c2ncsn2)cn1)C(=O)O (stereo not drawn) [Compound A20] | 80% | 100% | 100% | 90% | 90% | 60% | 100% | 100% | 100% |  |  |  |  |  |  |  |  | 
CC(NC(=O)C[n+]1ccc(-c2nccs2)cn1)C(=O)O (stereo not drawn) [Compound A10] | 90% | 90% | 40% | 40% | 20% | 60% | 40% | 60% | 100% |  |  |  |  |  |  |  |  | 
